According to paper PMC8400806, “Discovery of Amide-Functionalized Benzimidazolium Salts as Potent α-Glucosidase Inhibitors” (Molecules, 2021):
“Also recorded” adds a separate entry of the source. Where a name gives a salt, the structure may show the parent alone. Read-outs that look alike come from different tables or passages of the source.

What was measured:
[1] = target: T1, α-glucosidase enzyme (Saccharomyces cerevisiae, UniProt P53341); assay: biochemical; format: biochemical; details: for α-glucosidase inhibitory activity, in words: verbal rating in the SAR discussion
T1 construct: purchased Sigma-Aldrich, Munich, Germany
T1 sequence (P53341 whole entry): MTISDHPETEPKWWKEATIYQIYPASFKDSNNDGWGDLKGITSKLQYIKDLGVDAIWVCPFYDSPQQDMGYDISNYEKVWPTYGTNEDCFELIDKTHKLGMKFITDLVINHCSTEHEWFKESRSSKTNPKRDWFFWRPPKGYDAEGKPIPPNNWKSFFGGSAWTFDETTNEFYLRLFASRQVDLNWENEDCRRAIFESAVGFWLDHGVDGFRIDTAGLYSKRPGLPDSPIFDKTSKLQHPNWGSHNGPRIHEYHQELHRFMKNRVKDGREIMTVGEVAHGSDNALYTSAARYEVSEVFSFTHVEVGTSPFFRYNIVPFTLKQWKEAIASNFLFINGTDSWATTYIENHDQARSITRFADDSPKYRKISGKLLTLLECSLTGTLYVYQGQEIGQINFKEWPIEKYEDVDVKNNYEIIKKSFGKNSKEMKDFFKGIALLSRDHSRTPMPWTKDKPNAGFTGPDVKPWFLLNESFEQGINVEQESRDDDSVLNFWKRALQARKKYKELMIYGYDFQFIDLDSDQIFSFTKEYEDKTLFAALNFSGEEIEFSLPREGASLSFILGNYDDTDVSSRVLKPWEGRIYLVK
Experimental: The solution of the α-glucosidase enzyme (obtained from Saccharomyces cerevisiae (Sigma-Aldrich, Munich, Germany)) was prepared in phosphate buffer (pH 6.8, 100 mM). The synthesized compounds were dissolved in dimethyl sulfoxide (DMSO). […] Afterwards, 40 μL of 5 mM p-nitrophenyl-α-D-glucopyranoside (Sigma-Aldrich, Munich, Germany) was poured into each well and further incubated for an additional half-hour. […] Acarbose (Sigma-Aldrich, Munich, Germany) and DMSO were used as reference inhibitors and negative control, respectively. The tests were conducted in triplicate and percent inhibitions were calculated using the following formula: % Inhibition = [(A control − A sample)/A control] × 100 where ‘A’ stands for absorbance.
The IC50 values of the synthesized compounds and acarbose were also determined.

| SMILES | melting point [°C] | IC50 [1] [µM] | α-glucosidase inhibitory activity, in words [1] | α-glucosidase inhibitory potential, fold higher than the standard drug acarbose ([1]; from IC50 values versus acarbose) [fold] | IC50 ([1]; S. cerevisiae enzyme 0.5 U/mL, phosphate buffer pH 6.8, 37 °C, triplicate, read-out: IC50 α-glucosidase inhibition) [µM] |
| --- | --- | --- | --- | --- | --- |
| Cc1ccc(NC(=O)C[n+]2c(C)n(Cc3ccccc3)c3ccccc32)cc1.[Br-] [Compound 10k, 1-Benzyl-2-methyl-3-{2-oxo-2-(p-tolylamino)ethyl}-1H-benzo[d]imidazol-3-ium bromide] | 220 to 221 | 32.27 ± 0.05 | moderately active |  |  |
| Cc1n(Cc2ccccc2)c2ccccc2[n+]1CC(=O)Nc1cccc(Br)c1.[Br-] [Compound 10d, 1-Benzyl-3-[2-{(3-bromophenyl)amino}-2-oxoethyl]-2-methyl-1H-benzo[d]imidazol-3-ium bromide] | 242 | 14 ± 0.013 | higher activity than acarbose | 4 |  |
| Cc1n(Cc2ccccc2)c2ccccc2[n+]1CC(=O)Nc1ccccc1Br (as salt: bromide) [Compound 10c, 1-Benzyl-3-[2-{(2-bromophenyl)amino)}-2-oxoethyl]-2-methyl-1H-benzo[d]imidazol-3-ium bromide] | 252 |  |  |  |  |
| O=C(C[n+]1cn(Cc2ccccc2)c2ccccc21)Nc1cccc([N+](=O)[O-])c1.[Br-] [Compound 9g, 1-Benzyl-3-[2-{(3-nitrophenyl)amino}-2-oxoethyl]-1H-benzo[d]imidazol-3-ium bromide] | 162 to 163 | 215.73 ± 0.112 |  |  |  |
| Cc1n(Cc2ccccc2)c2ccccc2[n+]1CC(=O)Nc1ccc(Br)cc1.[Br-] [Compound 10e, 1-Benzyl-3-[2-{(4-bromophenyl)amino}-2-oxoethyl]-2-methyl-1H-benzo[d]imidazol-3-ium bromide] | 212 | 30 ± 0.049 | higher activity than acarbose |  |  |
| Cc1ccc(NC(=O)C[n+]2cn(Cc3ccccc3)c3ccccc32)cc1.[Br-] [Compound 9k, 1-Benzyl-3-{2-oxo-2-(p-tolylamino)ethyl}-1H-benzo[d]imidazol-3-ium bromide] | 148 to 149 | 201.13 ± 0.105 |  |  |  |
| Cc1n(Cc2ccccc2)c2ccccc2[n+]1CC(=O)Nc1ccc([N+](=O)[O-])cc1 [Compound 10h, 1-Benzyl-2-methyl-3-[2-{(4-nitrophenyl)amino)}-2-oxoethyl]-1H-benzo[d]imidazol-3-ium bromide] |  | 17 ± 0.067 | promising α-glucosidase inhibitory results |  |  |
| O=C(C[n+]1cn(Cc2ccccc2)c2ccccc21)Nc1cccc(Cl)c1.[Br-] [Compound 9a, 1-Benzyl-3-[2-{(3-chlorophenyl)amino}-2-oxoethyl]-1H-benzo[d]imidazol-3-ium bromide] | 205 to 207 | 150.7 ± 0.045 |  |  |  |
| Cc1n(Cc2ccccc2)c2ccccc2[n+]1CC(=O)Nc1ccc([N+](=O)[O-])cc1 (as salt: bromide) [Compound 10h, 1-Benzyl-2-methyl-3-[2-{(4-nitrophenyl)amino)}-2-oxoethyl]-1H-benzo[d]imidazol-3-ium bromide] | 222 to 224 |  |  |  |  |
| O=C(C[n+]1cn(Cc2ccccc2)c2ccccc21)Nc1ccc(Br)cc1 [Compound 9e, 1-Benzyl-3-[2-{(4-bromophenyl)amino)}-2-oxoethyl]-1H-benzo[d]imidazol-3-ium bromide] |  |  |  |  | 198 ± 0.103 |
| Cc1cccc(NC(=O)C[n+]2cn(Cc3ccccc3)c3ccccc32)c1.[Br-] [Compound 9j, 1-Benzyl-3-{2-oxo-2-(m-tolylamino)ethyl}-1H-benzo[d]imidazol-3-ium bromide] | 132 to 134 | 200.14 ± 0.039 |  |  |  |
| Cc1n(Cc2ccccc2)c2ccccc2[n+]1CC(=O)Nc1ccccc1[N+](=O)[O-].[Br-] [Compound 10f, 1-Benzyl-2-methyl-3-[2-{(2-nitrophenyl)amino}-2-oxoethyl]-1H-benzo[d]imidazol-3-ium bromide] |  | 60 ± 0.025 | considerable decline in activity |  |  |
| Cc1n(Cc2ccccc2)c2ccccc2[n+]1CC(=O)Nc1ccccc1Br [Compound 10c, 1-Benzyl-3-[2-{(2-bromophenyl)amino)}-2-oxoethyl]-2-methyl-1H-benzo[d]imidazol-3-ium bromide] |  | 46 ± 0.106 | higher activity than acarbose |  |  |
| O=C(C[n+]1cn(Cc2ccccc2)c2ccccc21)Nc1ccc(Cl)cc1.[Br-] [Compound 9b, 1-Benzyl-3-[2-{(4-chlorophenyl)amino}-2-oxoethyl]-1H-benzo[d]imidazol-3-ium bromide] | 197 to 198 | 169.16 ± 0.023 |  |  |  |
| Cc1cccc(NC(=O)C[n+]2c(C)n(Cc3ccccc3)c3ccccc32)c1.[Br-] [Compound 10j, 1-Benzyl-2-methyl-3-{2-oxo-2-(m-tolylamino)ethyl}-1H-benzo[d]imidazol-3-ium bromide] | 192 to 194 | 60 ± 0.041 | poor inhibitors |  |  |
| O=C(C[n+]1cn(Cc2ccccc2)c2ccccc21)Nc1ccc([N+](=O)[O-])cc1.[Br-] [Compound 9h, 1-Benzyl-3-[2{(4-nitrophenyl)amino}-2-oxoethyl]-1H-benzo[d]imidazol-3-ium bromide] | 152 to 153 |  |  |  |  |
| COc1ccc(NC(=O)C[n+]2cn(Cc3ccccc3)c3ccccc32)cc1.[Br-] [Compound 9m, 1-Benzyl-3-[2-{(4-methoxyphenyl)amino}-2-oxoethyl]-1H-benzo[d]imidazol-3-ium bromide] | 171 to 173 | 279.28 ± 0.03 | lowest α-glucosidase inhibitory results in their respective series |  |  |
| Cc1ccccc1NC(=O)C[n+]1cn(Cc2ccccc2)c2ccccc21.[Br-] [Compound 9i, 1-Benzyl-3-{2-oxo-2-(o-tolylamino)ethyl}-1H-benzo[d]imidazol-3-ium bromide] | 162 to 163 | 259.86 ± 0.043 |  |  |  |
| O=C(C[n+]1cn(Cc2ccccc2)c2ccccc21)Nc1cccc(Br)c1.[Br-] [Compound 9d, 1-Benzyl-3-[2-{(3-bromophenyl)amino}-2-oxoethyl]-1H-benzo[d]imidazol-3-ium bromide] | 176 to 178 | 171.11 ± 0.089 |  |  |  |
| Cc1n(Cc2ccccc2)c2ccccc2[n+]1CC(=O)Nc1cccc([N+](=O)[O-])c1.[Br-] [Compound 10g, 1-Benzyl-2-methyl-3-[2-{(3-nitrophenyl)amino}-2-oxoethyl]-1H-benzo[d]imidazol-3-ium bromide] | 180 to 182 | 19 ± 0.086 | promising α-glucosidase inhibitory results |  |  |
| COc1ccccc1NC(=O)C[n+]1cn(Cc2ccccc2)c2ccccc21.[Br-] [Compound 9l, 1-Benzyl-3-[2-{(2-methoxyphenyl)amino}-2-oxoethyl]-1H-benzo[d]imidazol-3-ium bromide] | 188 to 189 | 74.94 ± 0.028 |  |  |  |
| O=C(C[n+]1cn(Cc2ccccc2)c2ccccc21)Nc1ccccc1Br.[Br-] [Compound 9c, 1-Benzyl-3-[2-{(2-bromophenyl)amino}-2-oxoethyl]-1H-benzo[d]imidazol-3-ium bromide] | 192 to 194 | 70.01 ± 0.037 |  |  |  |
| O=C(C[n+]1cn(Cc2ccccc2)c2ccccc21)Nc1ccccc1[N+](=O)[O-].[Br-] [Compound 9f, 1-Benzyl-3-[2-{(2-nitrophenyl)amino}-2-oxoethyl]-1H-benzo[d]imidazol-3-ium bromide] | 142 to 143 | 241 ± 0.027 |  |  |  |
| Cc1ccccc1NC(=O)C[n+]1c(C)n(Cc2ccccc2)c2ccccc21.[Br-] [Compound 10i, 1-Benzyl-2-methyl-3-{2-oxo-2-(o-tolylamino)ethyl}-1H-benzo[d]imidazol-3-ium bromide] | 168 to 170 | 100 ± 0.048 | poor inhibitors; also recorded: lowest α-glucosidase inhibitory results in their respective series |  |  |

Continued, in another order:

| melting point [°C] | IC50 [1] [µM] | SMILES | α-glucosidase inhibitory activity, in words [1] | α-glucosidase inhibitory potential, fold higher than the standard drug acarbose ([1]; from IC50 values versus acarbose) [fold] | IC50 ([1]; S. cerevisiae enzyme 0.5 U/mL, phosphate buffer pH 6.8, 37 °C, triplicate, read-out: IC50 α-glucosidase inhibition) [µM] |
| --- | --- | --- | --- | --- | --- |
| 244 to 246 | 25 ± 0.011 | COc1ccccc1NC(=O)C[n+]1c(C)n(Cc2ccccc2)c2ccccc21.[Br-] [Compound 10l, 1-Benzyl-3-[2-{(2-methoxyphenyl)amino}-2-oxoethyl]-2-methyl-1H-benzo[d]imidazol-3-ium bromide] |  |  |  |
| 178 to 180 | 60 ± 0.041 | Cc1n(Cc2ccccc2)c2ccccc2[n+]1CC(=O)Nc1ccc(Cl)cc1.[Br-] [Compound 10b, 1-Benzyl-3-[2-{(4-chlorophenyl)amino}-2-oxoethyl]-2-methyl-1H-benzo[d]imidazol-3-ium bromide] |  |  |  |
| 210 to 213 | 22 ± 0.04 | Cc1n(Cc2ccccc2)c2ccccc2[n+]1CC(=O)Nc1cccc(Cl)c1.[Br-] [Compound 10a, 1-Benzyl-3-[2-{(3-chlorophenyl)amino}-2-oxoethyl]-2-methyl-1H-benzo[d]imidazol-3-ium bromide] |  |  |  |
| 235 to 238 | 16.16 ± 0.026 | COc1ccc(NC(=O)C[n+]2c(C)n(Cc3ccccc3)c3ccccc32)cc1.[Br-] [Compound 10m, 1-Benzyl-3-[2-{(4-methoxyphenyl)amino}-2-oxoethyl]-2-methyl-1H-benzo[d]imidazole-3-ium bromide] |  |  |  |
